Assay results published in ChEMBL document CHEMBL3352621, “Pentapeptide boronic acid inhibitors of Mycobacterium tuberculosis MycP1 protease” (Bioorg Med Chem Lett, 2014).
Calls of active or inactive are those of the source. Peptide text beside a SMILES is read from it. * marks the point of attachment. boroAla = C[C@H](N*)B(O)O

Experiments:
[1] = test system: Mycobacterium tuberculosis
[2] = test system: Mycobacterium thermoresistibile
[3] = test system: Mycolicibacterium smegmatis

Measured: inhibition

CC(C)[C@H](NC(=O)[C@H](C)N)C(=O)N[C@@H](CCCCN)C(=O)N[C@@H](C)C(=O)N[C@@H](C)B(O)O (H-AVKA-boroAla)
inactive: all assays above
